Measured values taken from patent US8486996B2, “Aroylfuranes and aroylthiophenes” (Basilea Pharmaceutica AG, priority 2006, dated 2013).
Read-outs that look alike come from different tables or passages of the source.

Columns and labels:
Format in all cases: cell-based
[1] = MTS proliferation assay (72 h read-out); conditions: MRC5 cells
Outline: (§1)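 Viability was read by MTS absorbance at 492 nm after 3 h with reagent. Before that, cells plated a day earlier at 1.5×10^3–10^4 per well had been incubated with test compound at final concentrations of 0.001–10 μM for 72 h; activity is given as category scores A–D.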

[2] = system: tumor cells; assay: MTS proliferation assay (72 h read-out)
Outline: as §1

[3] = Mitochondrial membrane potential, JC-1 (read-out 48 h); conditions: PBL, JC-1, 48 h
Outline: (§2)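 Tumor cells were treated with test compounds (adherent cells after 24 h of attachment, suspension cells immediately), medium holding up to 5% DMSO. After 48 h, JC-1 (2-5 μg/ml in added medium) was applied for 30 min. Fluorescence microscopy (FITC/TRITC filters) scored the fraction of cells with dissipated mitochondrial membrane potential as categories A-D.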

[4] = system: tumor cells; assay: as above; conditions: JC-1, 48 h
Outline: as §2

[5] = Hoechst 33342 nuclear staining (48 h read-out)
Outline: (§3)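 Adherent cells pre-spread 24 h before dosing, suspension cells dosed at seeding; compounds at 0.001 μM-10 μM final, 48 h at culture conditions. Hoechst 33342 (2-5 μg/ml) added for 30 min, then fluorescence microscopy scoring of apoptotic nuclear fraction and apoptosis-specific morphology, reported as scores A-D.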

[6] = system: tumor cells; assay: Hoechst 33342 nuclear staining (48 h read-out)
Outline: as §3

[7] = HT1080 cells, read-out: MTS proliferation assay IC50, HT1080
[8] = HeLa cells, read-out: MTS proliferation assay IC50, HeLa
[9] = Jily cells, read-out: MTS proliferation assay IC50, Jily
[10] = Jurkat cells, read-out: MTS proliferation assay IC50, Jurkat
[11] = HeLa cells, read-out: Mitochondrial membrane potential (read-out 48 h) HeLa
[12] = Jily cells, read-out: Mitochondrial membrane potential (read-out 48 h) Jily
[13] = Jurkat cells, read-out: Mitochondrial membrane potential (read-out 48 h) Jurkat
[14] = MCF7 cells, read-out: Mitochondrial membrane potential (read-out 48 h) MCF7
[15] = MRC5 cells, read-out: Hoechst 33342 nuclear staining EC50, MRC5
[16] = PBL, read-out: Hoechst 33342 nuclear staining EC50, PBL
[17] = HeLa cells, read-out: Hoechst 33342 nuclear staining EC50, HeLa
[18] = Jily cells, read-out: Hoechst 33342 nuclear staining EC50, Jily
[19] = Jurkat cells, read-out: Hoechst 33342 nuclear staining EC50, Jurkat

Row | SMILES | IC50 [1] | IC50 [2, 7] | IC50 [2, 8] | IC50 [2, 9] | IC50 [2, 10] | EC50 [3] | EC50 [4, 11] | EC50 [4, 12] | EC50 [4, 13] | EC50 [4, 14] | EC50 [5, 15] | EC50 [5, 16] | EC50 [6, 17] | EC50 [6, 18] | EC50 [6, 19]
1 | CCN(CC)c1ncccc1C(=O)c1oc2ccc(Cl)cc2c1N [Example 81] | 100 to 1000 nM | 10 to 100 nM | 100 to 1000 nM | 100 to 1000 nM | 10 to 100 nM | > 1000 nM | > 1000 nM | 100 to 1000 nM | 10 to 100 nM | > 1000 nM | > 1000 nM | > 1000 nM | 100 to 1000 nM | 100 to 1000 nM | 100 to 1000 nM
2 | CC1CN(c2ncccc2C(=O)c2oc3ccc(Cl)cc3c2N)CC(C)O1 (stereo not drawn) [Example 83] | 10 to 100 nM | 10 to 100 nM | 100 to 1000 nM | 10 to 100 nM | 10 to 100 nM | > 1000 nM | 100 to 1000 nM | 100 to 1000 nM | 10 to 100 nM | 100 to 1000 nM | 100 to 1000 nM | > 1000 nM | 100 to 1000 nM | 100 to 1000 nM | 10 to 100 nM
3 | Nc1c(C(=O)c2cccnc2N2CCCNCC2)oc2ccc(Cl)cc12 [Example 84] | > 1000 nM | > 1000 nM | > 1000 nM | > 1000 nM | > 1000 nM | > 1000 nM | > 1000 nM | > 1000 nM | > 1000 nM | > 1000 nM | > 1000 nM | > 1000 nM | > 1000 nM | > 1000 nM | > 1000 nM
4 | CN1CCN(c2ncccc2C(=O)c2oc3ccc(Cl)cc3c2N)CC1 [Example 85] | > 1000 nM | > 1000 nM | > 1000 nM | 100 to 1000 nM | 100 to 1000 nM | > 1000 nM | > 1000 nM | 100 to 1000 nM | 100 to 1000 nM | > 1000 nM | > 1000 nM | > 1000 nM | > 1000 nM | 100 to 1000 nM | 100 to 1000 nM
5 | Nc1c(C(=O)c2cccnc2N2CCC(O)CC2)oc2ccc(Cl)cc12 [Example 86] | > 1000 nM | > 1000 nM | > 1000 nM | 100 to 1000 nM | 100 to 1000 nM | > 1000 nM | > 1000 nM | > 1000 nM | > 1000 nM | > 1000 nM | > 1000 nM | > 1000 nM | > 1000 nM | > 1000 nM | > 1000 nM
6 | COc1ccc2oc(C(=O)c3cccnc3N3CCCC(C)C3)cc2c1 (stereo not drawn) [Example 87] | 10 to 100 nM | 10 to 100 nM | 10 to 100 nM | 10 to 100 nM | < 10 nM | > 1000 nM | 100 to 1000 nM | 100 to 1000 nM | 100 to 1000 nM | 100 to 1000 nM | 100 to 1000 nM | > 1000 nM | 100 to 1000 nM | 100 to 1000 nM | 100 to 1000 nM
7 | COc1ccc2oc(C(=O)c3cccnc3N3CC=CCC3)cc2c1 [Example 88] | < 10 nM | < 10 nM | 10 to 100 nM | < 10 nM | < 10 nM | > 1000 nM | 10 to 100 nM | 10 to 100 nM | 10 to 100 nM | 10 to 100 nM | 100 to 1000 nM | > 1000 nM | 100 to 1000 nM | 100 to 1000 nM | 100 to 1000 nM
8 | COc1ccc2oc(C(=O)c3cccnc3N3CCCCC3C)cc2c1 (stereo not drawn) [Example 89] | 100 to 1000 nM | 100 to 1000 nM | 100 to 1000 nM | 10 to 100 nM | 10 to 100 nM | > 1000 nM | 100 to 1000 nM | 100 to 1000 nM | 100 to 1000 nM | 100 to 1000 nM | 100 to 1000 nM | > 1000 nM | 100 to 1000 nM | 100 to 1000 nM | 100 to 1000 nM
9 | COc1ccc2oc(C(=O)c3cccnc3-n3ccnc3)cc2c1 [Example 90] | > 1000 nM | > 1000 nM | > 1000 nM | > 1000 nM | > 1000 nM | > 1000 nM | > 1000 nM | > 1000 nM | > 1000 nM | > 1000 nM | > 1000 nM | > 1000 nM | > 1000 nM | > 1000 nM | > 1000 nM
10 | COc1ccc2oc(C(=O)c3cccnc3N3CCCCC3)cc2c1 [Example 91] | < 10 nM | < 10 nM | 10 to 100 nM | < 10 nM | < 10 nM | > 1000 nM | 10 to 100 nM | 10 to 100 nM | 10 to 100 nM | 10 to 100 nM | 100 to 1000 nM | > 1000 nM | 100 to 1000 nM | 100 to 1000 nM | 100 to 1000 nM
